Measurements from ChEMBL document CHEMBL1137320, “A novel class of carbonic anhydrase inhibitors: glycoconjugate benzene sulfonamides prepared by "click-tailing"” (J Med Chem, 2006).

Molecular target: Carbonic anhydrase 9 (Homo sapiens, UniProt Q16790)

| Ki | Structure (SMILES) |
| --- | --- |
| 130 nM | CC(=O)OC[C@H]1O[C@@H](n2cc(COC(=O)c3ccc(S(N)(=O)=O)cc3)nn2)[C@H](OC(C)=O)[C@@H](OC(C)=O)[C@@H]1O[C@H]1O[C@H](COC(C)=O)[C@@H](OC(C)=O)[C@H](OC(C)=O)[C@H]1OC(C)=O |
| 1200 nM | CC(=O)N[C@@H]1[C@@H](OC(C)=O)[C@H](OC(C)=O)[C@@H](COC(C)=O)O[C@H]1n1cc(COC(=O)c2ccc(S(N)(=O)=O)cc2)nn1 |
| 241 nM | COC(=O)[C@H]1O[C@@H](n2cc(COC(=O)c3ccc(S(N)(=O)=O)cc3)nn2)[C@H](O)[C@@H](O)[C@@H]1O |
| 96 nM | NS(=O)(=O)c1ccc(C(=O)OCc2cn([C@@H]3OC[C@@H](O)[C@@H](O)[C@@H]3O)nn2)cc1 |

More lines, now with the values behind:

| Structure (SMILES) | Ki |
| --- | --- |
| NS(=O)(=O)c1ccc(C(=O)OCc2cn([C@@H]3O[C@H](CO)[C@H](O)[C@H](O)[C@H]3O)nn2)cc1 | 65 nM |
| COC(=O)[C@H]1O[C@@H](n2cc(CNC(=O)c3ccc(S(N)(=O)=O)cc3)nn2)[C@H](OC(C)=O)[C@@H](OC(C)=O)[C@@H]1OC(C)=O | 471 nM |
| C#CCOC(=O)c1ccc(S(N)(=O)=O)cc1 | 104 nM |
| NS(=O)(=O)c1ccc(C(=O)NCc2cn([C@@H]3O[C@H](CO)[C@@H](O)[C@H](O)[C@H]3O)nn2)cc1 | 442 nM |
| CC(=O)OC[C@H]1O[C@@H](n2cc(CNC(=O)c3ccc(S(N)(=O)=O)cc3)nn2)[C@H](OC(C)=O)[C@@H](OC(C)=O)[C@H]1OC(C)=O | 76 nM |
| CC(=O)OC[C@H]1O[C@@H](n2cc(CNC(=O)c3ccc(S(N)(=O)=O)cc3)nn2)[C@H](OC(C)=O)[C@@H](OC(C)=O)[C@@H]1OC(C)=O | 430 nM |
| CO[C@H]1O[C@H](Cn2cc(CNC(=O)c3ccc(S(N)(=O)=O)cc3)nn2)[C@@H](O)[C@H](O)[C@H]1O | 204 nM |
| NS(=O)(=O)c1ccc(C(=O)OCc2cn([C@@H]3O[C@H](CO)[C@@H](O)[C@H](O)[C@H]3O)nn2)cc1 | 183 nM |
